{"source": "patent US9475815B2", "about": "“Substituted benzothienyl-pyrrolotriazines and uses thereof” (Bayer Intellectual Property GmbH, priority 2012, dated 2016)", "key": {"[1]": {"tested_on": "Human umbilical vein endothelial cells (HUVEC)", "experiment": "Inhibition of growth factor-mediated cell proliferation (hFGF-2)", "format": "cell-based", "settings": "Homo sapiens, HUVEC, 72 h, 72 h exposure, hFGF-2 stimulated; from averaged pIC50 values", "description": "Human umbilical vein endothelial cells (HUVEC) were obtained from Cellsystems (FC-0003) and grown in Vasculife VEGF complete medium (Cellsystems, LL-1020) containing 2% fetal bovine serum (FBS) at 37° C. and 5% CO2. The cells were used for proliferation assays up to passage 7.\nThe HUVEC cells were harvested using accutase (PAA, L11-007) and seeded in columns 2 to 12 of 96-well plates (Falcon MICROTEST tissue culture plate 96-well flat bottom, BD 353075, or μCLEAR-PLATE, black, 96-well, Greiner Bio-One, No. 655090) at a cell density of 2500 cells/well in 100 μl Vasculife VEGF complete medium with column 1 remaining empty as blank. Cells were allowed to incubate at 37° C. and 5% CO2 for at least 6 h. Then, the cells were washed once with PBS and starved overnight in Vasculife basal medium (Cellsystems, LM-0002) containing heparin, ascorbate and L-glutamine (components of the Vasculife Life Factors Kit, Cellsystems, LL-1020) as well as 0.2% FBS.\nAfter about 18 h, the starving medium was discarded, and the cells were exposed for 72 h to 9 consecutive log or half-log concentrations of test compound in the range of 10 pM to 30 μM and to 5, 10 or 20 ng/ml hFGF-2 (recombinant human FGF basic, R&D Systems, 233-FB) in 100 μl starving medium. 10 mM stock solutions of test compounds in DMSO were diluted to 200× final concentration in DMSO resulting in a final DMSO concentration of 0.5% in all wells. Controls consisted of cells grown in starving medium only and of cells grown in hFGF-2 containing starving medium with 0.5% DMSO. To determine cell proliferation, 5 μl Alamar Blue solution (Biosource, DAL1100) was added to each well (1:20 dilution), and the cells were allowed to incubate for further 4 h at 37° C. and 5% CO2 before measuring fluorescence (ex. 535 nm, em. 595 nm) with a Spectrafluor Plus Tecan plate reader (XFLUOR4 version 4.20). In some experiments, an ATP Determination Kit (BIAFFIN GmbH, LBR-T100) was used according to the manufacturer's instructions. In each experiment, samples were assayed in triplicate, and the standard deviations were determined GraphPad Prism 5 software was used to analyze the data and to obtain IC50 values. All test compounds were assayed 2 to 10 times in independent experiments and similar results were obtained."}, "human mTOR": {"molecular_target": "human mTOR (Homo sapiens (Human), UniProt P42345)", "sequence (P42345 1360-2549)": "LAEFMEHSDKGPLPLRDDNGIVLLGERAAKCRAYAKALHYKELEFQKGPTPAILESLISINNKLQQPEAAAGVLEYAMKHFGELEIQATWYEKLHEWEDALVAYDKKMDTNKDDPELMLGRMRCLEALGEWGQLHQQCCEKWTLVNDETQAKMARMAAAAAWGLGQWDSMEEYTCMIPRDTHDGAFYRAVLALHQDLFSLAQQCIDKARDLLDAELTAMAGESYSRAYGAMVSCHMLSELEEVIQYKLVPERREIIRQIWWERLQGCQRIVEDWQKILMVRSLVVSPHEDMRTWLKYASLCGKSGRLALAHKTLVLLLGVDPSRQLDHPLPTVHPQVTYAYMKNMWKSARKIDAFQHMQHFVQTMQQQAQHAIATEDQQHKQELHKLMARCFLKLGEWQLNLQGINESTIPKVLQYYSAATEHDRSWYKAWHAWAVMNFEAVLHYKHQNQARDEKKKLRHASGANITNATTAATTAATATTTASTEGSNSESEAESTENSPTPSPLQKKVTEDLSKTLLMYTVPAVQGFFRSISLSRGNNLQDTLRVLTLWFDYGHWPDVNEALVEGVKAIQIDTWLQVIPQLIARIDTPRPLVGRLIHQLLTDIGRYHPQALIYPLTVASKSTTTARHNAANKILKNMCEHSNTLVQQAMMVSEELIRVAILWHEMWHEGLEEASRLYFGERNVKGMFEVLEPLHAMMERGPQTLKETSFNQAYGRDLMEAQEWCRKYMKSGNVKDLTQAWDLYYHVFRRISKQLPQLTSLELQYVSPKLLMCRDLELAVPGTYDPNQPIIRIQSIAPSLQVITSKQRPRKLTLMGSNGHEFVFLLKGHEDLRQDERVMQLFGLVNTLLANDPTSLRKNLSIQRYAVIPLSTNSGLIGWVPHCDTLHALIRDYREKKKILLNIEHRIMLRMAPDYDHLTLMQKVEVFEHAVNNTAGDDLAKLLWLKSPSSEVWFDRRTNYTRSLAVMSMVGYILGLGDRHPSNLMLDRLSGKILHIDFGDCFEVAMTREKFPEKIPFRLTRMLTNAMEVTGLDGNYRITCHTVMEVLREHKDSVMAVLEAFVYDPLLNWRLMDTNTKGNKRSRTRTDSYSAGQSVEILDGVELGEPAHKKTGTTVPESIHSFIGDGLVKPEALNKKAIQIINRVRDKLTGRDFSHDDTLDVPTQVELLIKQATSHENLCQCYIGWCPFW", "experiment": "mTOR kinase assay (TR-FRET, for comparative purposes)", "format": "biochemical", "settings": "read-out: mTOR % inhibition @ 1 μM, 1 μM test compound, 40 μM ATP, mean values"}, "human FGFR-1": {"molecular_target": "human FGFR-1 (Homo sapiens, UniProt P11362)", "sequence (P11362 22-822 limits assumed)": "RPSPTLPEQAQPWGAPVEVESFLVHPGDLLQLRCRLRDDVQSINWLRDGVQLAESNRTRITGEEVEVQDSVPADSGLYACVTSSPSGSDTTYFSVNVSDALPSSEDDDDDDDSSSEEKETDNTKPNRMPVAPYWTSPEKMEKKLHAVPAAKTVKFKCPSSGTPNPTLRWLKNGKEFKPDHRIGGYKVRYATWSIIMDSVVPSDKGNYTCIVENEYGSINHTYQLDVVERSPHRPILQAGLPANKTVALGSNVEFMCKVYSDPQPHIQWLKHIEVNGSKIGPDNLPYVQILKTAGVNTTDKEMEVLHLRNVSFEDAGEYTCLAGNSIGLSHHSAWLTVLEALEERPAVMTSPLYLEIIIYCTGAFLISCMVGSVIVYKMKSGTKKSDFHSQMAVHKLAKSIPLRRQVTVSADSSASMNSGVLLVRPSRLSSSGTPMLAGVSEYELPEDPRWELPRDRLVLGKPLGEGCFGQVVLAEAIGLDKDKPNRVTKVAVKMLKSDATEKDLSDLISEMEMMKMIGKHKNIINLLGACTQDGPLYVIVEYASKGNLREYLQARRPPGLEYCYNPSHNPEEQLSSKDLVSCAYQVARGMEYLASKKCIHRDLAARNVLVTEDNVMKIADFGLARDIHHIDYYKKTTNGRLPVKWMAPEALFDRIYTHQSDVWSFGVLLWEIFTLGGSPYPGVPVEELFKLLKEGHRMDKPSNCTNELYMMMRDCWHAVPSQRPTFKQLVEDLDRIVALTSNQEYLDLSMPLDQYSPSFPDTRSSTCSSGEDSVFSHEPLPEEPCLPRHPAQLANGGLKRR", "experiment": "FGFR-1 high ATP kinase assay (TR-FRET)"}, "human FGFR-3": {"molecular_target": "human FGFR-3 (Homo sapiens (Human), UniProt P22607)", "sequence (P22607 397-806)": "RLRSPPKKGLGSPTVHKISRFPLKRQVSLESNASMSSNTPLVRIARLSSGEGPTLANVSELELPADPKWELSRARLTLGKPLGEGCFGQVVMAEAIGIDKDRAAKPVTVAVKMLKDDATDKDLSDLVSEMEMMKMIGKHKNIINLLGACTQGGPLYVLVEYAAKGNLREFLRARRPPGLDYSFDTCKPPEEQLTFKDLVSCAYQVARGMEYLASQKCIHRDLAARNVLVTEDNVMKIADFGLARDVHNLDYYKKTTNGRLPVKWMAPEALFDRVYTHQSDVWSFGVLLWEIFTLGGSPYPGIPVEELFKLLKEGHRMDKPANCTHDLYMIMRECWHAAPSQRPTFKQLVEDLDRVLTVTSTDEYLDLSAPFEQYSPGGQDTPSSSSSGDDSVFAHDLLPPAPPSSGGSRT", "experiment": "FGFR-3 kinase assay (TR-FRET)", "format": "biochemical", "settings": "10 μM ATP, 15 min pre-incubation with enzyme"}}, "note": "Where a name gives a salt, the structure may show the parent alone."}
{"smiles": "COc1cc(C)cc2cc(-c3cc(CNC(=O)CN)n4ncnc(N)c34)sc12", "note": "[Example 106, N-{[4-Amino-5-(7-methoxy-5-methyl-1-benzothiophen-2-yl)pyrrolo[2,1-f][1,2,4]triazin-7-yl]-methyl}glycinamide dihydrochloride]", "values": [{"measurement": "IC50", "setting": "[1]", "value": 20, "unit": "nM"}, {"measurement": "inhibition at 1 µM", "setting": "human mTOR", "value": 5.6, "unit": "%"}, {"measurement": "IC50", "setting": "human FGFR-1", "value": 25.4, "unit": "nM"}, {"measurement": "IC50", "setting": "human FGFR-3", "value": 62.6, "unit": "nM"}]}
